Ten compounds from patent EP4782437A1, “HETEROARYL COMPOUND, AND PREPARATION METHOD THEREFOR AND USE THEREOF IN MEDICINE” (Jiangsu Hengrui Pharmaceuticals Co., Ltd., priority 2023, dated 2025) can be followed below.

As usually defined, the IC50 is the point on the concentration scale where inhibition reaches its midpoint.

In one assay the target is hERG potassium channels (Homo sapiens, UniProt Q12809). Briefly: cell-based.
The subject of assay [1] is B cell activation in human whole blood. Briefly: Inhibition of B cell activation in human whole blood (CD69 expression, flow cytometry). In kind it is cell-based. Particulars: anti-human IgD 30 µg/ml + IL-4 5 ng/ml, 18 hours, CD69-positive CD19-positive B cells, read-out: IC50 values of inhibitory activity against B cell activation in human whole blood. The source says:
Test example 2: Inhibitory activity of compounds of the present disclosure against B cell activation in human whole blood • I. Experimental materials and instruments • 1. Human whole blood (internal recruitment) • 2. Goat F(ab')2 anti-human IgD-UNLB (SouthernBiotech, 2032-01) • 3. DPBS (1x) (Gibco, 14190-144) • 4. Recombinant human IL-4 (Peprotech, 200-04) • 5. Brilliant Violet 421™ anti-human CD19 antibody (Biolegend, 302234) • 6. APC anti-human CD69 antibody (Biolegend, 310910) • 7. APC mouse IgG1, κ isotype control antibody (Biolegend, 400120) • 8. eBioscience™ 10X RBC lysis buffer (multi-species) (Thermo, 004300-54) • 9. NEST 96-well deep-well plate (Wuxi NEST Biotechnology Co., Ltd., 503501) • 10. 96-well round-bottom plate (Corning, 3788) • 11. 96-well flat-bottom plate (Corning, 3599) • 12. Attune™ NxT acoustic focusing cytometer (ThermoFisher Scientific, 4.2.0) • 13. Cell incubator (Thermo, Forma steri-cycle i160) • II. Experimental procedure
B cells express the B cell receptor (BCR) complex on their surface. When B cells in human whole blood are induced to activate, they can trigger the downstream signalling pathways of the receptor and express the activation marker CD69. The expression of CD69 in activated B cells was detected by flow cytometry, and the IC50 of the compounds were calculated to evaluate the effects of the compounds on BCR activation.
The test compounds dissolved in 100% DMSO at 20 mM were diluted with 100% DMSO to a concentration of 1 mM, which represents the 200× concentration of the highest compound concentration point in the reaction system. The compounds at this concentration were then subjected to 8-point 4-fold serial dilution with 100% DMSO. The positive control wells were set with 100% DMSO, whereas the negative control wells were set with Remiburtinib at a final concentration of 5 µM. The serially diluted compounds and 100% DMSO were further diluted 10-fold in PBS to achieve the 20× concentration, followed by thorough mixing.
After thorough mixing, the whole blood sample was transferred to a loading reservoir and then dispensed into a 96-well flat-bottom plate at 80 µl per well. The compound dilution was dispensed at 5 µl per well. The 11th column of each row was designated as the negative control well, with 5 µl of 100 µM positive control drug added to each well. After thorough mixing for 5 min, the plate was incubated in a 37°C incubator for 30 min. Human IgD antibody was diluted 1.67-fold with PBS to a concentration of 300 µg/mL, and 10 µl of the diluted solution was added to each well of the culture plate (final concentration: 30 µg/ml). Human IL-4 (stock solution at 50 µg/ml) was diluted 500-fold with PBS to a concentration of 100 ng/mL, and 5 µl of the diluted solution was added to each well of the culture plate (final concentration: 5 ng/ml). After thorough mixing for 5 min, the plate was cultured in a 37°C incubator with 5% CO2 for 18 hours.
Flow cytometry detection: CD69-APC, CD19-BV421 and CD4-APC antibodies, and the isotype control antibodies for CD69-APC were removed from 4°C storage. Each antibody was added at 1 µl per well. After thorough mixing for 5 min, the plate was incubated for 30 min at 4°C (refrigerator) in the dark for staining. The 10X RBC lysis buffer was diluted in water to prepare 1X RBC lysis buffer. Aliquots of 1 ml of the lysis buffer were dispensed into each well of a 96-well deep-well plate in advance. The stained samples were transferred into the deep-well plate containing the lysis buffer for erythrocyte lysis. After completing the transfer of an entire plate, the plate was incubated in the dark for 15-20 min. Upon completion of lysis, the plate was centrifuged at 2000 rpm for 4 min. Each well was washed with 1 ml of PBS. Subsequently, the cells were resuspended in 200 µl of PBS, transferred to a 96-well plate, and washed twice more using the same procedure. The samples were resuspended in 200 µl of PBS per well and then subjected to flow cytometry detection. […]

Assay [2] deals with T1, BTK recombinant human protein (Homo sapiens, UniProt Q06187).
T1 construct: purchased Thermo PV3363
Briefly: Inhibitory activity against BTK (HTRF KinEASE-TK kit). In kind it is biochemical. To be noted: 2 nM BTK, 10 µM ATP, 0.5 hours preincubation at 25°C; read-out: IC50 values of inhibitory activity against BTK. As to the method:
Test example 1: Inhibitory activity of compounds of the present disclosure against BTK • I. Experimental materials and instruments • 1. BTK recombinant human protein (Thermo, PV3363) • 2. HTRF KinEASE-TK kit (Cisbio, 62TK0PEC) • 3. 1 M MgCl2 (Thermo, AM9530G) • 4. 1 M MnCl2 (Sigma, M1787-100ML) • 5. Adenosine 5'-triphosphate (ATP) (New England Biolabs, P0756L) • 6. DTT 2M (Sangon Biotech, B645939) • 7. Ultrapure water (Invitrogen, 10977-015) • 8. OptiPlate-384, white opaque 384-well microplate (PerkinElmer, 6007290) • 9. 96-well round-bottom plate (Corning, 3788) • 10. Biochemical incubator (Shanghai Boxun Medical & Biological Instruments Co., Ltd., BSP-100) • 11. 15-mL centrifuge tube (Corning) • 12. Benchtop high-speed centrifuge (Changsha Yingtai Instrument Co., Ltd., TD4N) • 13. Multifunctional microplate reader (PerkinElmer, EnVision) • 14. Bravo liquid handling platform (Agilent Technologies, SGC120TH34702) • II. Experimental procedure
The HTRF KinEASE-TK kit is designed to detect changes in BTK enzyme activity based on two technologies, i.e., fluorescence resonance energy transfer and time-resolved fluorescence. The kit is operated in two stages: 1) enzyme reaction stage: the enzyme reaction is initiated by adding ATP, where the enzyme phosphorylates the substrate, and the compounds are then added to competitively bind to BTK against ATP, thereby inhibiting substrate phosphorylation; and 2) detection stage: after the enzyme reaction is complete, a detection reagent is added to terminate the reaction. Different groups on the phosphorylated substrate bind to the energy donor and energy acceptor, respectively, bringing the two into close proximity. During the instrumental readout, the energy donor is excited by an external light source, which enables resonance energy transfer to the proximal energy acceptor. The acceptor, in turn, becomes excited and emits light at a specific wavelength. Thus, changes in enzyme activity can be detected by measuring the signal values, and the inhibition rate of the compounds against the target enzyme can be calculated, thereby evaluating the inhibitory effect of the compounds on BTK enzyme activity.
Preparation of enzyme reaction buffer: 5× Kinase Buffer was diluted 5-fold with ultrapure water, and then the stock solutions of MgCl2, MnCl2 and DTT were added. The final composition of the buffer was as follows: 1× Kinase Buffer, 10 mM MgCl2, 1 mM MnCl2, and 1 mM DTT.
Preparation of 5 × BTK working solution: The BTK (5.17 µM) stock solution was removed from -20°C storage. Given that the BTK concentration in the enzyme reaction system was 2 nM and the concentration of the 5× working solution was 10 nM, the BTK stock solution was diluted 517-fold with the enzyme reaction buffer according to the volume required for the experiment. The diluted solution was then added to the 384-well plate at 2 µL per well. The plate was placed in a plate spinner and centrifuged at 2000 rpm for 1 minute to bring the liquid to the bottom of the wells.
[…]. Given that the SEB concentration in the enzyme reaction system was 50 nM and the concentration of the 5× working solution was 250 nM, the SEB stock solution was diluted 10-fold with the enzyme reaction buffer according to the volume required for the experiment. The diluted solution was then added to the 384-well plate at 2 µL per well. The plate was placed in a plate spinner and centrifuged at 2000 rpm for 1 minute to bring the liquid to the bottom of the wells.
The test compounds dissolved in 100% DMSO at 20 mM were diluted with 100% DMSO to a concentration of 200 µM, which represents the 200× concentration of the highest compound concentration point in the reaction system. The compounds at this concentration were then subjected to 10-point 3-fold serial dilution with 100% DMSO. The positive control wells and negative control wells were set with 100% DMSO. […]
(In TR-FRET formats the signal depends on donor and acceptor labels being close together.)

T1 sequence (Q06187 whole entry): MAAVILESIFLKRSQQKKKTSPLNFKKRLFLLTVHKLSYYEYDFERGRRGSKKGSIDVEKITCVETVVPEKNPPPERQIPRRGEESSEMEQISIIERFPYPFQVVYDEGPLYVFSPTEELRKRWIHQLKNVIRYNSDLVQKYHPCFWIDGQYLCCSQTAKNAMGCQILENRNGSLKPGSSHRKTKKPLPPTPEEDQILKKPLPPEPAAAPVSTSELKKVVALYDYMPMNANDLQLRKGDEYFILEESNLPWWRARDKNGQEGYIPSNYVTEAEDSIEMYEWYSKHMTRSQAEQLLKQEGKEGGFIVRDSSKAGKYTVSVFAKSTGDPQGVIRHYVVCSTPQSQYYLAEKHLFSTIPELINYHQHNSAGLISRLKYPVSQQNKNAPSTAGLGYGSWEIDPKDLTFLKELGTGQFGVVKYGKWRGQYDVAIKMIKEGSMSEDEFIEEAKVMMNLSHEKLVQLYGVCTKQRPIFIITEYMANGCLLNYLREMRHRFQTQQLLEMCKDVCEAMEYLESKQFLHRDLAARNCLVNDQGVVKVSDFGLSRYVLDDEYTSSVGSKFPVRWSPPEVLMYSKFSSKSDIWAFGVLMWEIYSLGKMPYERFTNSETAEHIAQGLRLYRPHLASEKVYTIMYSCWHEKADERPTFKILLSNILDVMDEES
hERG potassium channels, sequence (Q12809 whole entry): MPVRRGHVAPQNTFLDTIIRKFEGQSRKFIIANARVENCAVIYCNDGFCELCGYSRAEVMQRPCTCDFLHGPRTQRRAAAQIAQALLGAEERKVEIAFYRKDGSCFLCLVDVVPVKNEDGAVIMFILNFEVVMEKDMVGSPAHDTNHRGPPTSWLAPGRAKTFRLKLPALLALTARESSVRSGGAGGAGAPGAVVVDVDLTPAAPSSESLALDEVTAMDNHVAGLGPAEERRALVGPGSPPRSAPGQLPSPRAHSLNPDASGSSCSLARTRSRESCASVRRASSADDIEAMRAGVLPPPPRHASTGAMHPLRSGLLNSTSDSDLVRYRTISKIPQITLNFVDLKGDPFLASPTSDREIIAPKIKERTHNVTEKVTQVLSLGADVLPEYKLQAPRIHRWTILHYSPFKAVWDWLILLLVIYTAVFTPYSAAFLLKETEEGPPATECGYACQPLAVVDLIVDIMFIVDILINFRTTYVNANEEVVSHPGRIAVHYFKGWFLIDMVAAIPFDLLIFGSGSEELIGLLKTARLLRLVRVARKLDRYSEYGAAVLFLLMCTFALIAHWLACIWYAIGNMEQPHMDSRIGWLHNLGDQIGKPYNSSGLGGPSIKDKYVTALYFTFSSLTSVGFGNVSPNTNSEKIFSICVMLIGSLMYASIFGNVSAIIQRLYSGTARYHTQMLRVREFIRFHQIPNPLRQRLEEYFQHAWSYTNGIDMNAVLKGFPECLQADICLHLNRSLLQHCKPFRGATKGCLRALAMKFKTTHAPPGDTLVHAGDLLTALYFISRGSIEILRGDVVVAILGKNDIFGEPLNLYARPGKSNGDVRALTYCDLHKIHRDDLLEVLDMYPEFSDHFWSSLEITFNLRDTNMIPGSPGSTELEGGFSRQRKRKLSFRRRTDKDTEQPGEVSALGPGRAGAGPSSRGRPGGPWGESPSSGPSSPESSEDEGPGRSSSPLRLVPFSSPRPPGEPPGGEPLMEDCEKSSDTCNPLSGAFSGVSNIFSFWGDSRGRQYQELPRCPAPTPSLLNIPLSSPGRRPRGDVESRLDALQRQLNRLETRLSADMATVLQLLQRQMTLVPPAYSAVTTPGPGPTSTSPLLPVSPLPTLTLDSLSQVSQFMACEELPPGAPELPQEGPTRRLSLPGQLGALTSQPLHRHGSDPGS

As to `C=CC(=O)N(CCF)CCOc1c(N)ncnc1-c1cc(F)cc(NC(=O)c2ccc3c(c2F)OCC3(C)C)c1C` [Example 30, N-(3-(6-amino-5-(2-(N-(2-fluoroethyl)acrylamido)ethoxy)pyrimidin-4-yl)-5-fluoro-2-methylphenyl)-7-fluoro-3,3-dimethyl-2,3-dihydrobenzofuran-6-carboxamide], the IC50 is 20000 nM against hERG potassium channels, 10 to 100 nM in assay [1] and 1.55 nM in assay [2].
Taken in the same sequence, the figures for `C=CC(=O)N(C)CCOc1c(N)ncnc1-c1cc(F)cc(NC(=O)c2ccc3c(c2F)OCC3(C)C)c1C` [Example 7, N-(3-(6-amino-5-(2-(N-methacrylamido)ethoxy)pyrimidin-4-yl)-5-fluoro-2-methylphenyl)-7-fluoro-3,3-dimethyl-2,3-dihydrobenzofuran-6-carboxamide] were 17000 nM, 10 to 100 nM and 3 nM.
The like results for `C=CC(=O)N(C)CCOc1c(N)ncnc1-c1cc(F)cc(NC(=O)c2cc3c(cc2F)C(C)(C)CO3)c1C` [Example 8, N-(3-(6-amino-5-(2-(N-methacrylamido)ethoxy)pyrimidin-4-yl)-5-fluoro-2-methylphenyl)-5-fluoro-3,3-dimethyl-2,3-dihydrobenzofuran-6-carboxamide] were, in that order, 10000 nM, 10 to 100 nM and 6.2 nM.
Taken in the same sequence, the figures for `C=CC(=O)N(CC)CCOc1c(N)ncnc1-c1cc(F)cc(NC(=O)c2ccc3c(c2F)OCC3(C)C)c1C` [Example 29, N-(3-(6-amino-5-(2-(N-ethylacrylamido)ethoxy)pyrimidin-4-yl)-5-fluoro-2-methylphenyl)-7-fluoro-3,3-dimethyl-2,3-dihydrobenzofuran-6-carboxamide] were 16000 nM, 10 to 100 nM and 1.73 nM.
Take `C=CC(=O)N(C)CCOc1c(N)ncnc1-c1cc(F)cc(NC(=O)c2ccc3c(c2)OCC3(C)C)c1C` [Example 27, N-(3-(6-amino-5-(2-(N-methacrylamido)ethoxy)pyrimidin-4-yl)-5-fluoro-2-methylphenyl)-3,3-dimethyl-2,3-dihydrobenzofuran-6-carboxamide]: the IC50 at hERG potassium channels is 12000 nM; in assay [1], 10 to 100 nM; in assay [2] it was 7.52 nM.
For `[2H]C([2H])([2H])N(CCOc1c(N)ncnc1-c1cc(F)cc(NC(=O)c2ccc3c(c2F)OCC32CC2)c1C)C(=O)C=C` [Example 18, N-(3-(6-amino-5-(2-(N-(methyl-d3)acrylamido)ethoxy)pyrimidin-4-yl)-5-fluoro-2-methylphenyl)-7-fluoro-2H-spiro[benzofuran-3,1'-cyclopropane]-6-carboxamide], the IC50 in assay [1] was 10 to 100 nM; in assay [2], 3.78 nM.
The like results for `C=CC(=O)N1CCC[C@H]1COc1c(N)ncnc1-c1cc(F)cc(NC(=O)c2ccc3c(c2F)OCC3(C)C)c1C` [Example 31, (S)-N-(3-(5-((1-acryloylpyrrolidin-2-yl)methoxy)-6-aminopyrimidin-4-yl)-5-fluoro-2-methylphenyl)-7-fluoro-3,3-dimethyl-2,3-dihydrobenzofuran-6-carboxamide] were, in that order, 10 to 100 nM and 0.7 nM.
Regarding `C=CC(=O)N(C)CCOc1c(N)ncnc1-c1cc(F)cc(NC(=O)c2cc3c(cc2F)C(C)(C)CC3)c1C` [Example 12, N-(3-(6-amino-5-(2-(N-methacrylamido)ethoxy)pyrimidin-4-yl)-5-fluoro-2-methylphenyl)-6-fluoro-1,1-dimethyl-2,3-dihydro-1H-indene-5-carboxamide], the half-maximal inhibitory concentration (IC50) in assay [1] was 10 to 100 nM; in assay [2], 4 nM.
Turning to `C=CC(=O)N1C[C@H](F)C[C@H]1COc1c(N)ncnc1-c1cc(F)cc(NC(=O)c2ccc3c(c2F)OCC3(C)C)c1C` [Example 32, N-(3-(5-(((2S,4R)-1-acryloyl-4-fluoropyrrolidin-2-yl)methoxy)-6-aminopyrimidin-4-yl)-5-fluoro-2-methylphenyl)-7-fluoro-3,3-dimethyl-2,3-dihydrobenzofuran-6-carboxamide], the IC50 at hERG potassium channels is 12000 nM; in assay [1], 10 to 100 nM; in assay [2], 1.56 nM.
Taken in the same sequence, the figures for `[2H]C([2H])(CN(C)C(=O)C=C)Oc1c(N)ncnc1-c1cc(F)cc(NC(=O)c2ccc3c(c2F)OCC3(C)C)c1C` [Example 28, N-(3-(6-amino-5-(2-(N-methacrylamido)ethoxy-1,1-d2)pyrimidin-4-yl)-5-fluoro-2-methylphenyl)-7-fluoro-3,3-dimethyl-2,3-dihydrobenzofuran-6-carboxamide] were 14000 nM, 10 to 100 nM and 2.12 nM.
